Holding throughout (type): cell-based
Holding throughout (details): compounds at 50 nM and 500 nM

One assay deals with T1, IKZF1 (Homo sapiens, UniProt Q13422+Q96SW2).
T1 construct: The supernatant was aspirated as the extracted total cell protein; endogenous in cells; host or cells: human peripheral blood mononuclear cells (hPBMCs)
The assay is described as follows: Western blot degradation of IKZF1 in hPBMCs (24 h). Put shortly:
(§1)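 Immunoblot densitometry quantifies target loss in hPBMCs after a 24 h compound exposure (50 nM, 500 nM). Percent remaining is normalised band intensity; DC50 is the concentration giving half the DMSO-control band grayscale.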
A general note: In western blotting, separated proteins are transferred to a membrane and probed.

For a further assay, the target named is T2, GSPT1 (Homo sapiens, UniProt P15170+Q96SW2).
T2 construct: The supernatant was aspirated as the extracted total cell protein; endogenous in cells; host or cells: human peripheral blood mononuclear cells (hPBMCs)
Briefly: Western blot degradation of GSPT1 in hPBMCs (24 h). An outline of the steps:
as §1

The target of the next assay is T3, IKZF2 (Homo sapiens, UniProt Q96SW2+Q9UKS7).
T3 construct: The supernatant was aspirated as the extracted total cell protein; endogenous in cells; host or cells: human peripheral blood mononuclear cells (hPBMCs)
The assay is described as follows: Western blot degradation of IKZF2 in hPBMCs (24 h). An outline of the steps:
as §1

The next assay addresses T4, IKZF3 (Homo sapiens, UniProt Q96SW2+Q9UKT9).
T4 construct: The supernatant was aspirated as the extracted total cell protein; endogenous in cells; host or cells: human peripheral blood mononuclear cells (hPBMCs)
The assay is described as follows: Western blot degradation of IKZF3 in hPBMCs (24 h). Put shortly:
as §1

For another assay, the target named is T5, WEE1 (Homo sapiens, UniProt P30291+Q96SW2).
T5 construct: The supernatant was aspirated as the extracted total cell protein; endogenous in cells; host or cells: human peripheral blood mononuclear cells (hPBMCs)
Briefly: Western blot degradation of WEE1 in hPBMCs (24 h). An outline of the steps:
as §1

The next assay concerns the target T6, CK1α (Homo sapiens, UniProt P48729+Q96SW2).
T6 construct: The supernatant was aspirated as the extracted total cell protein; endogenous in cells; host or cells: human peripheral blood mononuclear cells (hPBMCs)
The assay is described as follows: Western blot degradation of CK1α in hPBMCs (24 h). An outline of the steps: as §1

Data on 11 molecules can be found in patent publication US20260356819A1, “OXOISOINDOLINYL-SUBSTITUTED […] DERIVATIVE AND USE THEREOF” (GLUETACS THERAPEUTICS (SHANGHAI) CO., LTD., priority 2023, published 2026).

T5 sequence (P30291 whole entry): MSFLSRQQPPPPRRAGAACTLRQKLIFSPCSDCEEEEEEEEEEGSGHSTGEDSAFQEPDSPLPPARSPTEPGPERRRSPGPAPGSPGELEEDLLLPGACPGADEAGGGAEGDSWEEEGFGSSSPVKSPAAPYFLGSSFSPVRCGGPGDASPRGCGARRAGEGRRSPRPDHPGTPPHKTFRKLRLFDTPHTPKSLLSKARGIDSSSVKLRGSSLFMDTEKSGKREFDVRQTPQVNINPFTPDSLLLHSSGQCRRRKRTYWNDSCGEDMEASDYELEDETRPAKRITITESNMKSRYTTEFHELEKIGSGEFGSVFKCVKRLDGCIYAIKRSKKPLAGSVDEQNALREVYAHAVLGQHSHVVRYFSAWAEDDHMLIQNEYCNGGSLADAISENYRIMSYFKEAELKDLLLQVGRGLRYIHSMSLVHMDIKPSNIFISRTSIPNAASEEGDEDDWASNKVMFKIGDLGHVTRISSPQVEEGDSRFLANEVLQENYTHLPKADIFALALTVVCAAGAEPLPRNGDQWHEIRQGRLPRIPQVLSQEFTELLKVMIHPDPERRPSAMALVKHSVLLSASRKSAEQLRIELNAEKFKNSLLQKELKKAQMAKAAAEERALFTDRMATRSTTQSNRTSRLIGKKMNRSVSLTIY
T5 sequence (Q96SW2 whole entry): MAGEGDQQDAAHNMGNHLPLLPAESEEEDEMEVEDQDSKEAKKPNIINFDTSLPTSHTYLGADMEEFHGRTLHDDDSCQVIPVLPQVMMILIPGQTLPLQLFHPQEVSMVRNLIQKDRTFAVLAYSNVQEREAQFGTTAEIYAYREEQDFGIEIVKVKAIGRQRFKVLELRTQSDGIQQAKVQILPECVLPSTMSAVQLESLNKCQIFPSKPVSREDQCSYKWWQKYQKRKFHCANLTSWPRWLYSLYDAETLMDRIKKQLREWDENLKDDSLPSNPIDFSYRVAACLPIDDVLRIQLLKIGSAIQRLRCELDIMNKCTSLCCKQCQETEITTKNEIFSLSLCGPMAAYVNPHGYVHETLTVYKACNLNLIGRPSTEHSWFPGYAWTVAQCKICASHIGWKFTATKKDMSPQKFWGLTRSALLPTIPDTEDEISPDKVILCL
T5 sequence (Q16531 whole entry partner): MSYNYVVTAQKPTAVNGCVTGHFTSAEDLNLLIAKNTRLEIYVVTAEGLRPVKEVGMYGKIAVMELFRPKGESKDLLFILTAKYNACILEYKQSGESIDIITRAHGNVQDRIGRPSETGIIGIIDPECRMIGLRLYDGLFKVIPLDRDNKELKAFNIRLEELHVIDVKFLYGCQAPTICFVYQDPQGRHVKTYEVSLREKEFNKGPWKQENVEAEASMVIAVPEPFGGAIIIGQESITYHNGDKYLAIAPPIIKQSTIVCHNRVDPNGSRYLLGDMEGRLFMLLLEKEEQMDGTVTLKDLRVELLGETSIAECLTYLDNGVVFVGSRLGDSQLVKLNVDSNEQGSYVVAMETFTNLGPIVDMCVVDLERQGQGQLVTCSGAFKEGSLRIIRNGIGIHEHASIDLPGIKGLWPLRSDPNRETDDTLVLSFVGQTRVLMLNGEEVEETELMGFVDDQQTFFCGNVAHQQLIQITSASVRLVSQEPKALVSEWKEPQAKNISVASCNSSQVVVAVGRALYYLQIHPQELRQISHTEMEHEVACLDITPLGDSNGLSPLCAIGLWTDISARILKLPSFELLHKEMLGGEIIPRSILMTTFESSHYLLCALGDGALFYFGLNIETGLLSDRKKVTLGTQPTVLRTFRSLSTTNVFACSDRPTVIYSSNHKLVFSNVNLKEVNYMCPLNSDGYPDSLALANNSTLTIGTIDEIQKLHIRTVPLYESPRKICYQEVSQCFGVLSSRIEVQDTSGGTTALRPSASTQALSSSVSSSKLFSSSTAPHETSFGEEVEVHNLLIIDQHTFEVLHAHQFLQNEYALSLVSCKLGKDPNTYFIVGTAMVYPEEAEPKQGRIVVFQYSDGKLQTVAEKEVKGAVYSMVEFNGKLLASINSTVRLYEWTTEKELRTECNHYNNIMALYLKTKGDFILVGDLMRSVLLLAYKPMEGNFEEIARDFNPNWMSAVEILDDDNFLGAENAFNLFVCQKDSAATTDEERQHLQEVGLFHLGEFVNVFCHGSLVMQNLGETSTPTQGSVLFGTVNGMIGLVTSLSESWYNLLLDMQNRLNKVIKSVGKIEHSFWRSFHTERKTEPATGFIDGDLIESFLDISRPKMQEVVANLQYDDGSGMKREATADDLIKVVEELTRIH
T1 sequence (Q13422 whole entry): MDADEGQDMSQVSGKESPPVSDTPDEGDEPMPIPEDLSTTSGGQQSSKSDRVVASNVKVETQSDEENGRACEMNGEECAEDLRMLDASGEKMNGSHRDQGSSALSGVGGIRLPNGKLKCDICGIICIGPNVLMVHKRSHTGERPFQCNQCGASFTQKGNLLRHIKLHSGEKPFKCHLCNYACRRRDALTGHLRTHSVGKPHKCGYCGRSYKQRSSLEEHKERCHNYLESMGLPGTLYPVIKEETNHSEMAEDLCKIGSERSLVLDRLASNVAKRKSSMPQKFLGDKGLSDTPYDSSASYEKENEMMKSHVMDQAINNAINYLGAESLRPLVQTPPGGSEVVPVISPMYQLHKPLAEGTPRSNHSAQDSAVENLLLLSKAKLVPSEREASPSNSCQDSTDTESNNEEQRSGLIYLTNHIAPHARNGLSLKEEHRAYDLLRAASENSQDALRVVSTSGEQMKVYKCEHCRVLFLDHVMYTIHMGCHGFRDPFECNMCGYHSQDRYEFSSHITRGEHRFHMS
T1 sequence (Q96SW2 whole entry): as the sequence (Q96SW2 whole entry) above
T1 sequence (Q16531 whole entry partner): as the sequence (Q16531 whole entry partner) above
T2 sequence (P15170 whole entry): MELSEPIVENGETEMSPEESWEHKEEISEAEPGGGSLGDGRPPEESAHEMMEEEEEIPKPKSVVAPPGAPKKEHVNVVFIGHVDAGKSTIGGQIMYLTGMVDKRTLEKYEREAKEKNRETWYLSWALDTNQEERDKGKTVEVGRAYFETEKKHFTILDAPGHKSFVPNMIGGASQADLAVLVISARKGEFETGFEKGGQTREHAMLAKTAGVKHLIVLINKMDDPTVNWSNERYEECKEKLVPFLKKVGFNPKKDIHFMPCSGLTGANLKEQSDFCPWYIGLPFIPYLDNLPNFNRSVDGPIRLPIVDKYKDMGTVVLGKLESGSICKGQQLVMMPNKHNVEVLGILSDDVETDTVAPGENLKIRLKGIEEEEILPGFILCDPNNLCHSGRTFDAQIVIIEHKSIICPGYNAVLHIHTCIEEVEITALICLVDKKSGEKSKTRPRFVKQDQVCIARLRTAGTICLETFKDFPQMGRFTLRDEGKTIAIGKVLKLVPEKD
T2 sequence (Q96SW2 whole entry): as the sequence (Q96SW2 whole entry) above
T2 sequence (Q16531 whole entry partner): as the sequence (Q16531 whole entry partner) above
T3 sequence (Q9UKS7 whole entry): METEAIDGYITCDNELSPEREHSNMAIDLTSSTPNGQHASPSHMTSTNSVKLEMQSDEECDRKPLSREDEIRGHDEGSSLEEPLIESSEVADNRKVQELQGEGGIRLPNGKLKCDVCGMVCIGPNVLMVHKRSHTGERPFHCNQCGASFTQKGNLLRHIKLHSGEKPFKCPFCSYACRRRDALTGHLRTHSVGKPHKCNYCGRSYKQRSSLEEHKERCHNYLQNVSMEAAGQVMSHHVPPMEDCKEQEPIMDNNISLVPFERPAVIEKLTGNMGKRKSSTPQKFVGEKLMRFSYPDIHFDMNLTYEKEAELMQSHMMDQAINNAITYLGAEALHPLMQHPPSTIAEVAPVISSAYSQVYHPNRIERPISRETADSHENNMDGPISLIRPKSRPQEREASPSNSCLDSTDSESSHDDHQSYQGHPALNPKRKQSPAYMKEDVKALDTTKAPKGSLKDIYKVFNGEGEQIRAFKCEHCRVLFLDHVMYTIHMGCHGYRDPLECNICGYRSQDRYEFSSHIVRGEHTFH
T3 sequence (Q96SW2 whole entry): as the sequence (Q96SW2 whole entry) above
T3 sequence (Q16531 whole entry partner): as the sequence (Q16531 whole entry partner) above
T4 sequence (Q9UKT9 whole entry): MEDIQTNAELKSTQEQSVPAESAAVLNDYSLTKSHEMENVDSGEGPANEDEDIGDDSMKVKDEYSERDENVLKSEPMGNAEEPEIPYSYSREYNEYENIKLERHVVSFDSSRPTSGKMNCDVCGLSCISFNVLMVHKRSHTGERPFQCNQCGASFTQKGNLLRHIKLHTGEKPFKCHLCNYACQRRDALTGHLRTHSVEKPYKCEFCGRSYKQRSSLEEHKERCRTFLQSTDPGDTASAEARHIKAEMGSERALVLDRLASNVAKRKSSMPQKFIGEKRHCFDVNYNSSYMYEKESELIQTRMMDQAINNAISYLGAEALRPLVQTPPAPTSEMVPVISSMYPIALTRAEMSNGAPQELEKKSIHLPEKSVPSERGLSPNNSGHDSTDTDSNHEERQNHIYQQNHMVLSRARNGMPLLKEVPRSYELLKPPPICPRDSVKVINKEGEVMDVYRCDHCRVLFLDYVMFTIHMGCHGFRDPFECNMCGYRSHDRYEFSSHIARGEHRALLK
T4 sequence (Q96SW2 whole entry): as the sequence (Q96SW2 whole entry) above
T4 sequence (Q16531 whole entry partner): as the sequence (Q16531 whole entry partner) above

For the molecule `O=C1CCN(N2C(=O)c3ccc(CN4CCN(c5n[nH]c6cc(F)ccc56)CC4)cc3C2=O)C(=O)N1` [GT-07527, 2-(2,4-dioxotetrahydropyrimidin-1(2H)-yl)-5-((4-(6-fluoro-1H-indazol-3-yl)piperazin-1-yl)methyl)isoindoline-1,3-dione], the “IKZF1 substrate protein remaining %” value on IKZF1 is given as “B (80%< substrate protein remaining % ≤100%)”. At GSPT1, the “GSPT1 substrate protein remaining %” value is listed as “A (0% ≤ substrate protein remaining % ≤80%)”. For the same molecule, the “IKZF2 substrate protein remaining %” value on IKZF2 is listed as “B (80%< substrate protein remaining % ≤100%)”. In addition, the “IKZF3 substrate protein remaining %” value on IKZF3 is recorded as “B (80%< substrate protein remaining % ≤100%)”. Also, the “WEE1 substrate protein remaining %” value on WEE1 was “B (80%< substrate protein remaining % ≤100%)”. The “CK1α substrate protein remaining %” value at CK1α is listed as “A (0% ≤ substrate protein remaining % ≤80%)”.
As to `O=C1CCN(N2Cc3cc(CN4CCN(c5ncnc6sc(-c7ccccc7)cc56)CC4)ccc3C2=O)C(=O)N1` [GT-08064, 1-(1-oxo-5-((4-(6-phenylthieno[2,3-d]pyrimidin-4-yl)piperazin-1-yl)methyl)isoindolin-2-yl)dihydropyrimidine-2,4(1H,3H)-dione], the “IKZF1 substrate protein remaining %” value on IKZF1 is reported as “B (80%< substrate protein remaining % ≤100%)”. The “GSPT1 substrate protein remaining %” value on GSPT1 is given as “B (80%< substrate protein remaining % ≤100%)”. For the same molecule, at IKZF2, the “IKZF2 substrate protein remaining %” value is on record as “A (0% ≤ substrate protein remaining % ≤80%)”. Moreover, the “IKZF3 substrate protein remaining %” value at IKZF3 is reported as “B (80%< substrate protein remaining % ≤100%)”. For the same molecule, the “WEE1 substrate protein remaining %” value on WEE1 is on record as “B (80%< substrate protein remaining % ≤100%)”. Further, the “CK1α substrate protein remaining %” value on CK1α is on record as “B (80%< substrate protein remaining % ≤100%)”.
For `CC(C)c1cc2c(N3CCN(Cc4ccc5c(c4)CN(N4CCC(=O)NC4=O)C5=O)CC3)ncnc2s1` [GT-08060, 1-(5-((4-(6-isopropylthieno[2,3-d]pyrimidin-4-yl)piperazin-1-yl)methyl)-1-oxoisoindolin-2-yl)dihydropyrimidine-2,4(1H,3H)-dione], the “IKZF1 substrate protein remaining %” value at IKZF1 was “B (80%< substrate protein remaining % ≤100%)”. Moreover, the “GSPT1 substrate protein remaining %” value at GSPT1 is recorded as “B (80%< substrate protein remaining % ≤100%)”. For the same molecule, the “IKZF2 substrate protein remaining %” value on IKZF2 was “A (0% ≤ substrate protein remaining % ≤80%)”. For the same molecule, the “IKZF3 substrate protein remaining %” value at IKZF3 is reported as “A (0% ≤ substrate protein remaining % ≤80%)”. Besides, the “WEE1 substrate protein remaining %” value on WEE1 is “B (80%< substrate protein remaining % ≤100%)”. For the same molecule, on CK1α, the “CK1α substrate protein remaining %” value is listed as “B (80%< substrate protein remaining % ≤100%)”.
Turning to `O=C1CCN(N2C(=O)c3ccc(CN4CCN(c5cnnc(Cl)c5Cl)CC4)cc3C2=O)C(=O)N1` [GT-07035, 5-((4-(5,6-dichloropyridazin-4-yl)piperazin-1-yl)methyl)-2-(2,4-dioxotetrahydropyrimidin-1(2H)-yl)isoindoline-1,3-dione], the “IKZF1 substrate protein remaining %” value on IKZF1 is “B (80%< substrate protein remaining % ≤100%)”. In addition, at GSPT1, the “GSPT1 substrate protein remaining %” value is “A (0% ≤ substrate protein remaining % ≤80%)”. Besides, at IKZF2, the “IKZF2 substrate protein remaining %” value is “B (80%< substrate protein remaining % ≤100%)”. Moreover, at IKZF3, the “IKZF3 substrate protein remaining %” value is given as “A (0% ≤ substrate protein remaining % ≤80%)”. Besides, the “WEE1 substrate protein remaining %” value on WEE1 was “B (80%< substrate protein remaining % ≤100%)”. The “CK1α substrate protein remaining %” value on CK1α is given as “A (0% ≤ substrate protein remaining % ≤80%)”.
Consider `COc1ccccc1N1CCN(Cc2ccc3c(c2)C(=O)N(N2CCC(=O)NC2=O)C3=O)CC1` [GT-06720, 2-(2,4-dioxotetrahydropyrimidin-1(2H)-yl)-5-((4-(2-methoxyphenyl)piperazin-1-yl)methyl)isoindoline-1,3-dione], for which the “IKZF1 substrate protein remaining %” value at IKZF1 is given as “B (80%< substrate protein remaining % ≤100%)”. Also, the “GSPT1 substrate protein remaining %” value at GSPT1 is recorded as “B (80%< substrate protein remaining % ≤100%)”. Further, the “IKZF2 substrate protein remaining %” value at IKZF2 is reported as “B (80%< substrate protein remaining % ≤100%)”. In addition, the “IKZF3 substrate protein remaining %” value on IKZF3 was “A (0% ≤ substrate protein remaining % ≤80%)”. Also, at WEE1, the “WEE1 substrate protein remaining %” value is given as “B (80%< substrate protein remaining % ≤100%)”. Besides, the “CK1α substrate protein remaining %” value on CK1α is recorded as “B (80%< substrate protein remaining % ≤100%)”.
On to `O=C1CCN(N2Cc3cc(CN4CCC(c5cccc(F)c5F)CC4)ccc3C2=O)C(=O)N1` [GT-08194, 1-(5-((4-(2,3-difluorophenyl)piperidin-1-yl)methyl)-1-oxoisoindolin-2-yl)dihydropyrimidine-2,4(1H,3H)-dione], for which the “IKZF1 substrate protein remaining %” value at IKZF1 was “A (0% ≤ substrate protein remaining % ≤80%)”. Further, the “GSPT1 substrate protein remaining %” value at GSPT1 is reported as “A (0% ≤ substrate protein remaining % ≤80%)”. In addition, the “IKZF2 substrate protein remaining %” value at IKZF2 is “B (80%< substrate protein remaining % ≤100%)”. In addition, the “IKZF3 substrate protein remaining %” value on IKZF3 is given as “B (80%< substrate protein remaining % ≤100%)”. Also, on WEE1, the “WEE1 substrate protein remaining %” value is given as “B (80%< substrate protein remaining % ≤100%)”. Moreover, the “CK1α substrate protein remaining %” value on CK1α is given as “B (80%< substrate protein remaining % ≤100%)”.
As for `O=C1CCN(N2Cc3cc(CN4CC=C(c5ccnc(F)c5F)CC4)ccc3C2=O)C(=O)N1` [GT-06397, 1-(5-((2′,3′-difluoro-3,6-dihydro-[4,4′-bipyridin]-1(2H)-yl)methyl)-1-oxoisoindolin-2-yl)dihydropyrimidine-2,4(1H,3H)-dione], the “IKZF1 substrate protein remaining %” value on IKZF1 is reported as “B (80%< substrate protein remaining % ≤100%)”. In addition, the “GSPT1 substrate protein remaining %” value at GSPT1 is “A (0% ≤ substrate protein remaining % ≤80%)”. In addition, at IKZF2, the “IKZF2 substrate protein remaining %” value was “A (0% ≤ substrate protein remaining % ≤80%)”. In addition, the “IKZF3 substrate protein remaining %” value on IKZF3 was “B (80%< substrate protein remaining % ≤100%)”. For the same molecule, the “WEE1 substrate protein remaining %” value at WEE1 is given as “A (0% ≤ substrate protein remaining % ≤80%)”. Besides, the “CK1α substrate protein remaining %” value on CK1α is “B (80%< substrate protein remaining % ≤100%)”.
For the molecule `CC1(C)CCC(CN2CC3CC2CN3Cc2ccc3c(c2)CN(N2CCC(=O)NC2=O)C3=O)=C(c2ccc(Cl)cc2)C1` (stereo not drawn) [GT-07329, 1-(5-((5-((4′-chloro-5,5-dimethyl-3,4,5,6-tetrahydro-[1,1′-biphenyl]-2-yl)methyl)-2,5-diazabicyclo[2.2.1]heptan-2-yl)methyl)-1-oxoisoindolin-2-yl)dihydropyrimidine-2,4(1H,3H)-dione], the “IKZF1 substrate protein remaining %” value on IKZF1 is reported as “B (80%< substrate protein remaining % ≤100%)”. The “GSPT1 substrate protein remaining %” value at GSPT1 is on record as “A (0% ≤ substrate protein remaining % ≤80%)”. Also, on IKZF2, the “IKZF2 substrate protein remaining %” value is listed as “B (80%< substrate protein remaining % ≤100%)”. The “IKZF3 substrate protein remaining %” value on IKZF3 is “B (80%< substrate protein remaining % ≤100%)”. Further, the “WEE1 substrate protein remaining %” value at WEE1 is “A (0% ≤ substrate protein remaining % ≤80%)”. The “CK1α substrate protein remaining %” value on CK1α is recorded as “B (80%< substrate protein remaining % ≤100%)”.
Take `O=C1CCN(N2C(=O)c3ccc(CN4CCN(c5ccccc5Br)CC4)cc3C2=O)C(=O)N1` [GT-06727, 5-((4-(2-bromophenyl)piperazin-1-yl)methyl)-2-(2,4-dioxotetrahydropyrimidin-1(2H)-yl)isoindoline-1,3-dione]: the “IKZF1 substrate protein remaining %” value on IKZF1 is given as “B (80%< substrate protein remaining % ≤100%)”. Moreover, at GSPT1, the “GSPT1 substrate protein remaining %” value is reported as “B (80%< substrate protein remaining % ≤100%)”. The “IKZF2 substrate protein remaining %” value on IKZF2 was “A (0% ≤ substrate protein remaining % ≤80%)”. Moreover, the “IKZF3 substrate protein remaining %” value on IKZF3 is “A (0% ≤ substrate protein remaining % ≤80%)”. Further, at WEE1, the “WEE1 substrate protein remaining %” value is given as “B (80%< substrate protein remaining % ≤100%)”. Besides, on CK1α, the “CK1α substrate protein remaining %” value is given as “A (0% ≤ substrate protein remaining % ≤80%)”.
As for `O=C1CCN(N2C(=O)c3ccc(CN4CCC(c5ccccc5F)CC4)cc3C2=O)C(=O)N1` [GT-06877, 2-(2,4-dioxotetrahydropyrimidin-1(2H)-yl)-5-((4-(2-fluorophenyl)piperidin-1-yl)methyl)isoindoline-1,3-dione], the “IKZF1 substrate protein remaining %” value at IKZF1 was “B (80%< substrate protein remaining % ≤100%)”. Further, the “GSPT1 substrate protein remaining %” value on GSPT1 was “B (80%< substrate protein remaining % ≤100%)”. In addition, the “IKZF2 substrate protein remaining %” value at IKZF2 was “B (80%< substrate protein remaining % ≤100%)”. Further, the “IKZF3 substrate protein remaining %” value at IKZF3 is “B (80%< substrate protein remaining % ≤100%)”. Further, the “WEE1 substrate protein remaining %” value on WEE1 is listed as “B (80%< substrate protein remaining % ≤100%)”. Moreover, the “CK1α substrate protein remaining %” value on CK1α is “A (0% ≤ substrate protein remaining % ≤80%)”.
Take `O=C1CCN(N2Cc3cc(CN4CCC(c5cccc6cnccc56)CC4)ccc3C2=O)C(=O)N1` [GT-07644, 1-(5-((4-(isoquinolin-5-yl)piperidin-1-yl)methyl)-1-oxoisoindolin-2-yl)dihydropyrimidine-2,4(1H,3H)-dione]: on IKZF1, the “IKZF1 substrate protein remaining %” value is recorded as “B (80%< substrate protein remaining % ≤100%)”. In addition, the “GSPT1 substrate protein remaining %” value at GSPT1 is “A (0% ≤ substrate protein remaining % ≤80%)”. Besides, on IKZF2, the “IKZF2 substrate protein remaining %” value is reported as “B (80%< substrate protein remaining % ≤100%)”. In addition, the “IKZF3 substrate protein remaining %” value at IKZF3 is reported as “B (80%< substrate protein remaining % ≤100%)”. In addition, the “WEE1 substrate protein remaining %” value on WEE1 is “B (80%< substrate protein remaining % ≤100%)”. Besides, the “CK1α substrate protein remaining %” value on CK1α was “B (80%< substrate protein remaining % ≤100%)”.
